Measurements reported in paper PMC2222791, “Induction of the oxidative catabolism of retinoid acid in MCF-7 cells” (British Journal of Cancer, 1997).
“And” between values parts separate entries of the source, which are not always exact repeats. Equal entries are not always repeated. Where two headings read alike, the source gives them in different places. Starred links: 1 amine or outer side, 2 acyl side, 3 side chain; linkers in the order of their positions; H or OH if unused. Positions of bridges follow the written chain, without caps; N, C: chain ends. Non-standard residues stand in square brackets, D forms with d. Residues, ends and D or L forms follow the SMILES beside them. Chains are numbered I, II in the order given. Actinocin(9to1) = Cc1c2oc3c(C)ccc(C(=O)[*:1])c3nc-2c(C(=O)[*:2])c(N)c1=O; NMeV = CN[C@H](C(=O)O)C(C)C; Sar = CNCC(=O)O

Tests used:
[1] = test system: all-trans-RA catabolism in MCF-7 cells; assay: Inhibition of induced all-trans-RA catabolism in MCF-7 cells; type: cell-based, human; settings: for Activity in inhibiting all-trans-RA catabolism, times less than all-trans-RA: relative to all-trans-RA, from IC50 values of Table 2; for IC50: MCF-7 cells preincubated 24 h with 10^-6 M all-trans-RA, 10^-7 M [3H]all-trans-RA as substrate, mean ± s.d., three experiments in duplicate; for Inhibition of induced all-trans-RA catabolism, in words: induced MCF-7 cells, 10^-7 M [3H]all-trans-RA, CH55 up to 10 μM
[2] = test system: MCF-7 cells; assay: Viability of MCF-7 cells after preincubation (trypan blue); settings: 24 h preincubation, varying concentrations, results not shown
[3] = test system: HL-60 leukaemia cells; design: method as in Bollag and Holdener, 1992; Matsushima et al, 1992; settings: ref Bollag and Holdener, 1992, Matsushima et al; cited from earlier work
[4] = test system: RARs; design: method as in Duell et al, 1992; settings: ref Duell et al, 1992; cited from earlier work
[5] = test system: RbTE cells and HL-60 leukaemia cells; design: method as in Jetten et al, 1987; settings: ref Jetten et al, 1987; cited from earlier work
[6] = test system: all-trans-RA catabolism in MCF-7 cells; assay: Induction of all-trans-RA catabolism in MCF-7 cells by preincubation with retinoids (microcolumn assay); settings: for RA catabolism (% of control): 24 h preincubation
[7] = test system: BA-HAN-IC; settings: BA-HAN-IC cells; ref Ramp et al, 1994; cited from earlier work
[8] = test system: CRABP-II mRNA; assay: Northern blotting for CRABP mRNA in MCF-7 cells; type: cell-based, human
Procedure: (§1) British Journal of Cancer (1997) 75(8), 1098-1104 ? […] Quantification was performed by optical densitometric scanning. […] Data are shown as mean ? s.d.

[9] = test system: rat liver homogenates; settings: cited from earlier work
[10] = test system: hamster liver microsomes; settings: read-out: Km value of all-trans-RA catabolism, cited from earlier work
[11] = test system: rat Dunning R3327G tumour homogenates; settings: cited from earlier work
[12] = test system: all-trans-RA catabolism in MCF-7 cells; assay: Enzyme characteristics of induced all-trans-RA catabolism (Michaelis-Menten, Lineweaver-Burk); type: cell-based, human; settings: MCF-7 cells preincubated 24 h with 10^-6 M all-trans-RA; substrate 5 x 10^-9 to 10^-6 M [3H]all-trans-RA; overall formation of polar metabolites; read-out: Estimated Km value of induced all-trans-RA catabolism
Procedure: as §1

[13] = test system: MCF-7 cells
[14] = test system: F9 embryonal carcinoma cells; design: method as in Willams and Napoli, 1985; settings: ref Willams and Napoli, 1985; cited from earlier work
[15] = read-out: Km value of all-trans-RA catabolism
[16] = ref Krekels et al, 1995, read-out: IC50 value for inhibition of all-trans-RA catabolism

## CC1=C(/C=C/C(C)=C/C=C/C(C)=C\C(=O)O)C(C)(C)CCC1 [13-cis-RA, 13-cis-retinoic acid]
[1]
  Activity in inhibiting all-trans-RA catabolism, times less than all-trans-RA: 5 times
[2]
  Viability of the cells after preincubation: did not decrease viability
[3]
  Potency in inducing differentiation relative to all-trans-RA: equipotent

## CC1=C(/C=C/C(C)=C/C=C/C(C)=C/C(=O)O)C(C)(C)CCC1O (centres unmarked) [4-hydroxy-RA]
[4]
  Potency in stimulating gene transcription, times less potent than RA: 2-10 times

## CC(C)(C)c1cc(C(=O)/C=C/c2ccc(C(=O)O)cc2)cc(C(C)(C)C)c1 [CH55, (E)-4-[3-(3,5-di-tert-butylphenyl)-3-oxo-l-propenyl]benzoic acid]
[5]
  Biological activity, times higher than that of all-trans-RA: 20-25 times
[1]
  IC50: > 10000 nM
  Inhibition of induced all-trans-RA catabolism, in words: did not inhibit
[2]
  Viability of the cells after preincubation: did not decrease viability

## Cc1c2oc3c(C)ccc(C(=O)N[C@@H]4C(=O)N[C@H](C(C)C)C(=O)N5CCC[C@H]5C(=O)N(C)CC(=O)N(C)[C@@H](C(C)C)C(=O)O[C@@H]4C)c3nc-2c(C(=O)N[C@@H]2C(=O)N[C@H](C(C)C)C(=O)N3CCC[C@H]3C(=O)N(C)CC(=O)N(C)[C@@H](C(C)C)C(=O)O[C@@H]2C)c(N)c1=O [actinomycin D] (I: T[dV]P[Sar][NMeV] / II: T[dV]P[Sar][NMeV]; ester I:1-I:C, II:1-II:C; linker I:N-II:N via Actinocin(9to1))
[6]; actinomycin D 0.1 μg ml-1 with 10^-6 M all-trans-RA
  RA catabolism (% of control): 14.3 % of control
[6]; actinomycin D 1 μg ml-1 with 10^-6 M all-trans-RA
  RA catabolism (% of control): 11.7 % of control

## CC1=C(/C=C/C(C)=C/C=C/C(C)=C/C(=O)O)C(C)(C)CCC1=O [4-keto-RA]
[4]
  Potency in stimulating gene transcription, times less potent than RA: 2-10 times

## CC1=C(/C=C/C(C)=C/C=C/C(C)=C/C(=O)O)C(C)(C)CCC1O (stereo not drawn) [4-hydroxy-all-trans-RA]
[7]
  Differentiation-inducing activity relative to all-trans-RA: significantly weaker

## CC1=C(/C=C/C(C)=C/C=C/C(C)=C/C(=O)O)C(C)(C)CCC1 [all-trans-RA, All-trans-retinoic acid]
[8]; 10^-7 M all-trans-RA, 24 h
  Reduction in CRABP-II mRNA: 20%
[8]; CRABP-I mRNA, results not shown
  Expression of CRABP-I mRNA after treatment: remained low
[1]
  Inhibition of induced all-trans-RA catabolism, in words: most active compound
[9]; [15]
  Km: 4.3 µM
[6]; 10^-6 M all-trans-RA
  Preincubation period to maximal induction: 16 h and 16 to 24 h
[6]; 16 h induction with 10^-6 M all-trans-RA, then wash-out
  Time for induction to decrease to the constitutive level after wash-out: ≤ 24 h
[6]; preincubation with all-trans-RA
  Onset of induction detectable: ≤ 60 min
[2]
  Viability of the cells after preincubation: did not decrease viability
[10]; ref Roberts et al (1980)
  Km: 1.1 µM
[10]; ref Van Wauwe et al (1988)
  Km: 12.5 µM
[11]; [15]
  Km: 1.7 µM
[12]
  Km: 0.33 µM

## CC1=C(/C=C/C(C)=C/C=C/C(C)=C\C(=O)O)C(C)(C)CCC1=O [4-keto-13-cis-RA, 4-keto-13-cis-retinoic acid]
[1]
  IC50: 6600 nM
  Activity in inhibiting all-trans-RA catabolism, times less than all-trans-RA: about 50 times
[13]
  Viability of the cells after preincubation: did not decrease viability

## Clc1cccc(C(c2ccc3[nH]cnc3c2)n2ccnc2)c1.Clc1cccc(C(c2ccc3[nH]cnc3c2)n2ccnc2)c1.O=C(O)/C=C/C(=O)O.O=C(O)/C=C/C(=O)O.O=C(O)/C=C/C(=O)O (stereo not drawn) [liarozole-fumarate, 5-[3(chlorophenyl)(lH-imidazole-l-yl)methyl]-IH-benzimidazole (E)-2-butenedioate(2:3)]
[1]
  Inhibition of induced all-trans-RA catabolism, in words: potency similar to that of all-trans-RA
[9]; [16]
  IC50: 140 nM
[11]; [16]
  IC50: 260 nM

## CC1=C(/C=C/C(C)=C\C=C\C(C)=C\C(=O)O)C(C)(C)CCC1 [9-cis-RA, 9-cis-retinoic acid]
[1]; Homo sapiens, MCF7
  IC50: 1890 nM
[1]
  Activity in inhibiting all-trans-RA catabolism, times less than all-trans-RA: about 15 times
[2]
  Viability of the cells after preincubation: did not decrease viability
[3]
  Potency in inducing differentiation relative to all-trans-RA: equipotent to 10-fold as active

## CC1=C(/C=C/C(C)=C/C=C/C(C)=C/C(=O)O)C(C)(C)CCC1=O [4-keto-all-trans-RA, 4-Keto-all-trans-retinoic acid]
[1]
  IC50: 370 nM
  Inhibition of induced all-trans-RA catabolism, in words: activity similar to that of all-trans-RA
[13]
  Viability of the cells after preincubation: did not decrease viability
[7]
  Differentiation-inducing activity relative to all-trans-RA: significantly weaker

## CC1=C(/C=C/C(C)=C/C=C/C(C)=C/CO)C(C)(C)CCC1 [retinol, Retinol]
[14]
  Activity in inducing differentiation relative to all-trans-RA: approximately 10%
[1]
  Inhibition of induced all-trans-RA catabolism, in words: least active natural compound
[2]
  Viability of the cells after preincubation: did not decrease viability
